The values below come from paper PMC6264390, “Design, Synthesis and Structure-activity Studies of Rhodanine Derivatives as HIV-1 Integrase Inhibitors” (Molecules, 2010).

For one series, the target named is T1, HIV-1 IN (Human immunodeficiency virus type 1 group M subtype B, UniProt P12497).
T1 construct: pre-incubated with purified recombinant IN (at a final concentration of 200 nM); made in house
The series can be described thus: In vitro IN inhibition assay (3’-processing and strand transfer). Type of series: biochemical. The settings on record: for IC50: Mn2+ cofactor (7.5 mM MnCl2); for IN inhibition (in words): highest concentration tested 100 μM. On the procedure: (§1) All compounds were dissolved in DMSO to a final stock concentration of 10 mM and stored at −20 °C. Initial screening for IN inhibitory effect was done at 100 μM and dilutions were made in DMSO. Compounds showing at least 50% inhibition at 100 μM were selected for IC50 determinations. γ-[^32P]-ATP was purchased from Perkin Elmer (Waltham, MA, USA). The expression system for wild-type IN was a generous gift of Dr. Robert Craigie, Laboratory of Molecular Biology, NIDDK, NIH (Bethesda, MD, USA). His-tagged APE1 was purified from an expression system kindly provided by Dr. Tom Curran, Department of Developmental Neurobiology, St. Jude Children’s Research Hospital (Memphis, TN, USA).
(§2) 21-mer oligonucleotides used in IN inhibition assay [21top (5’-[…]-3’) and 21bot (5’-ACTGCTAGAGATTTTCCA CAC-3’)] were purchased from Integrated DNA Technologies (Coralville, IA, USA) and purified by UV shadowing on polyacrylamide gel. The oligonucleotides used in APE1 inhibition assay [top strand: 5′-ATTTCACCGGTACG(F)TCTAGAATC CG-3′ containing the tetrahydrofuran synthetic abasic residue (F), and bottom strand: 3′-TAAAGTGG CCATGC(C)AGATCTTAGGC-5′] were purchased from The Midland Certified Reagent Company (Midland, TX, USA). To analyze the extent of 3’-processing and strand transfer with 5’-end labeled substrates, 21top was 5’-end labeled using T4 polynucleotide kinase (Epicentre, Madison, WI, USA) and [γ-^32P]-ATP (Perkin Elmer, Waltham, MA, USA). The kinase was heat-inactivated at 95 °C and 21bot was added in […]. The reaction mixture was allowed to cool slowly to room temperature, and purified through a spin-25 minicolumn (USA Scientific, Ocala, FL, USA) to separate annealed double-stranded oligonucleotide from unincorporated material. The oligonucleotides used in the APE1 inhibition assay were labeled using a similar protocol.
To determine the extent of 3’-processing and strand transfer, the test compounds, diluted in DMSO, were pre-incubated with purified recombinant IN (at a final concentration of 200 nM) in the reaction buffer [50 mM NaCl, 1 mM HEPES (pH 7.5), 50 μM EDTA, 50 μM dithiothreitol, 10% glycerol (w/v), 7.5 mM MnCl2, 0.1 mg mL–1 bovine serum albumin, 10 mM 2-mercaptoethanol, 10% dimethyl sulfoxide, and 25 mM MOPS (pH 7.2)] at 30 °C for 30 min. For Mg^2+ assay, 7.5 mM MgCl2 was substituted for MnCl2 and an optimal concentration of PEG was included in the reaction buffer. Following the pre-incubation, 20 nM of the 5’-end ^32P-labeled linear oligonucleotide substrate was added to the reaction mixture and incubated for an additional 1 h. Reactions were quenched by addition of 50X loading dye (98% deionized formamide, 10 mM EDTA, 0.025% xylene cyanol, and 0.025 % bromophenol blue). An aliquot was subjected to electrophoresis on a denaturing polyacrylamide gel (0.09 M tris–borate, pH 8.3, 2 mM EDTA, 20% acrylamide, 8M urea). Gels were dried under vacuum, exposed in a PhosphorImager cassette and visualized with a Typhoon 8610 Variable Mode Imager (Amersham Biosciences). Quantification was done with Image Quant 5.2 software. Percent inhibition (%I) was calculated using the following equation: %I = 100 × [1 − (D − C) / (N − C)] where C, N, and D are the fractions of 21-mer substrate converted into 19-mer (product of 3’-processing) or strand-transfer products for DNA alone, DNA plus IN, and DNA, IN plus test compound, respectively. IC50 values were determined by plotting the logarithm of test compound concentrations as a function of %I to obtain the concentration that produced 50% inhibition.

Series [1] has as its target T2, human apurinic/apyrimidinic endonuclease 1 (APE1) (Homo sapiens, UniProt P27695).
T2 construct: His; made in house
Nature of the series: APE1 inhibition assay. It is filed as biochemical. The protocol: as §1, §2
APE1 inhibition assay was performed as previously described. To determine the extent of endonucleolytic cleavage of the abasic residue, the test compounds, diluted in DMSO, were preincubated with recombinant APE1 at a final concentration of 0.05 nM in the reaction buffer [50 mM NaCl, 1 mM HEPES, pH 7.5, 50 μM EDTA, 50 μM dithiothreitol, 10% glycerol (w/v), 7.5 mM MnCl2, 0.1 mg mL‑1 bovine serum albumin, 10 mM 2-mercaptoethanol, 10% DMSO, and 25 mM MOPS, pH 7.2] at 30 °C for 10 min. Following preincubation, 200 nM of the 5′-end ^32P-labeled linear oligonucleotide substrate was added, and incubated for an additional 10 minutes. Reactions were quenched by the addition of an equal volume (16 μL) of loading dye (98% deionized formamide, 10 mM EDTA, 0.025% xylene cyanol, and 0.025% bromophenol blue). An aliquot (5 μL) was electrophoresed on a denaturing 20% polyacrylamide gel (0.09 M tris-borate pH 8.3, 2 mM EDTA, 20% acrylamide, 8 M urea). The gels were dried, exposed in a PhosphorImager cassette and analyzed using a Typhoon 8610 Variable Mode Imager (Amersham Biosciences). Quantification of enzyme inhibition was done using Image Quant 5.2 software. The percent inhibition (% I) was calculated using the following equation: %I = 100 × [1 − (D − C) / (N − C)] where C, N, and D are the fractions of 26-mer substrate converted to 13-mer incision products (or integration products) for DNA alone, DNA plus APE1, and DNA, APE1 plus test compound, respectively. IC50 values were determined by plotting the logarithm of compound concentration as a function of %I to obtain the concentration that produced 50% inhibition. An optimum concentration of APE1 enzyme, at which there is complete conversion of the synthetic abasic-site containing oligonucleotide substrate to its cleaved product without subsequent exonuclease activity, was used in the assay.

The mark [2] stands for this setting: read-out: Inhibition of IN catalytic activity IC50, 3’-Processing.
The mark [3] stands for this setting: read-out: Inhibition of IN catalytic activity IC50, Strand Transfer.
Where [4] appears, read: read-out: Inhibition of APE1 catalytic activity IC50.

As usually defined, the IC50 is the point on the concentration scale where inhibition reaches its midpoint. As usually defined, the melting point is the temperature of the solid-liquid transition.

Each structure is given as a SMILES string. Like-named read-outs stand apart in the source and are kept apart here.

T2 sequence (P27695 whole entry): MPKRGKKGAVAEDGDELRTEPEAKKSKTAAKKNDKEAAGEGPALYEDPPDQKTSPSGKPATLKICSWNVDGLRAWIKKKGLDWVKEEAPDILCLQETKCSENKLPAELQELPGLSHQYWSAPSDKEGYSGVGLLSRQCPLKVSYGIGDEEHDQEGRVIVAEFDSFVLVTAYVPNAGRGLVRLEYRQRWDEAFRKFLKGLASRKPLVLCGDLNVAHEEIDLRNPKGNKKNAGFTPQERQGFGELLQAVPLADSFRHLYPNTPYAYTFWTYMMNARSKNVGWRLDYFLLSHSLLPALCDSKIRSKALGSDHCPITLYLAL

As to `COc1cc(NC(=O)C(=S)NN2C(=O)C(=Cc3cc(Cl)ccc3O)SC2=S)cc(OC)c1OC` [Compound 27, 2-{[5-(5-Chloro-2-hydroxybenzylidene)-4-oxo-2-thioxo-1,3-thiazolidin-3-yl]amino}-2-thioxo-N-(3,4,5-trimethoxyphenyl)acetamide], the melting point lay in the range of 216 to 217 °C. For the same molecule, the IC50 at HIV-1 IN (setting [2]) came to 83 ± 25 µM. Besides, the half-inhibitory concentration (IC50) at HIV-1 IN (setting [3]) amounted to 20 µM. The 50% inhibitory concentration (IC50) in series [1] (setting [4]) was > 100 µM.
For `COc1cc(NC(=O)C(=S)NN2C(=O)C(=Cc3cc(Br)cc(Br)c3O)SC2=S)cc(OC)c1OC` [Compound 37, 2-{[5-(3,5-Dibromo-2-hydroxybenzylidene)-4-oxo-2-thioxo-1,3-thiazolidin-3-yl]amino}-2-thioxo-N-(3,4,5-trimethoxyphenyl)acetamide] the same measures were 221 to 222 °C, 33 ± 7 µM, 35 ± 6 µM and > 100 µM.
Regarding `CCOc1cc(-n2cnnn2)c(OCC)cc1NC(=O)C(=S)NN1C(=O)C(=Cc2ccc([N+](=O)[O-])o2)SC1=S` [Compound 20, N-[2,5-diethoxy-4-(1H-tetrazol-1-yl)phenyl]-2-{5-[(5-nitro-2-furyl)methylene]-4-oxo-2-thioxo-1,3-thiazolidin-3-yl}amino-2-thioxoacetamide], the melting point lay in the range of 136 to 138 °C. For the same molecule, the IC50 at HIV-1 IN (setting [2]) is > 100 µM. Also, the 50% inhibitory concentration (IC50) at HIV-1 IN (setting [3]) came out at 85 ± 21 µM. In series [1] (setting [4]), the half-maximal inhibitory concentration (IC50) was > 100 µM.
For the molecule `C=CCc1cccc(C=C2SC(=S)N(NC(=S)C(=O)Nc3cc(OC)c(OC)c(OC)c3)C2=O)c1O` [Compound 32, 2-{[5-(3-Allyl-2-hydroxybenzylidene)-4-oxo-2-thioxo-1,3-thiazolidin-3-yl]amino}-2-thioxo-N-(3,4,5-trimethoxyphenyl)acetamide], the melting point lay in the range of 174 to 175 °C. Further, at HIV-1 IN (setting [2]), the IC50 came out at 82 ± 5 µM. On HIV-1 IN (setting [3]), the IC50 turned out to be 83 ± 3 µM. In series [1] (setting [4]), the IC50 is > 100 µM.
The molecule `COc1cc(NC(=O)C(=S)NN2C(=O)/C(=C\c3ccc(O)c(C(=O)O)c3)SC2=S)cc(OC)c1OC` [Compound 35] showed a melting point of 239 to 240 °C. For the same molecule, the IC50 at HIV-1 IN (setting [2]) stood at 45 ± 24 µM. Moreover, on HIV-1 IN (setting [3]), the IC50 is 61 ± 11 µM. Also, the “IN inhibition (in words)” value on HIV-1 IN is reported as “only a moderate effect”. The 50% inhibitory concentration (IC50) in series [1] (setting [4]) was > 100 µM.
On to `COc1cc(NC(=O)C(=S)NN2C(=O)C(=Cc3ccc([N+](=O)[O-])o3)SC2=S)cc(OC)c1OC` [Compound 19, 2-{5-[(5-Nitro-2-furyl)methylene]-4-oxo-2-thioxo-1,3-thiazolidin-3-yl}amino-2-thioxo-N-(3,4,5-tri-methoxyphenyl)acetamide], for which the melting point is 201 to 202 °C. Moreover, the concentration for half-maximal inhibition (IC50) at HIV-1 IN (setting [2]) worked out at 40 ± 28 µM. In addition, at HIV-1 IN (setting [3]), the half-inhibitory concentration (IC50) was 25 ± 11 µM. Further, the 50% inhibitory concentration (IC50) in series [1] (setting [4]) is > 100 µM.
`O=C(Nc1ccccc1)C(=S)NN1C(=O)C(=Cc2c[nH]c3ccccc23)SC1=S` [Compound 10, 2-{[5-(1H-indol-3-ylmethylene)-4-oxo-2-thioxo-1,3-thiazolidin-3-yl]amino}-N-phenyl-2-thioxo-acetamide]: the melting point was in the range of 206 to 207 °C. For the same molecule, the half-inhibitory concentration (IC50) at HIV-1 IN (setting [2]) is > 100 µM. Also, at HIV-1 IN (setting [3]), the half-inhibitory concentration (IC50) is > 100 µM. For the same molecule, the “IN inhibition (in words)” value at HIV-1 IN was “abolished any activity”. The IC50 in series [1] (setting [4]) was > 100 µM.
As to `O=C(Nc1cccc([N+](=O)[O-])c1)C(=S)NN1C(=O)C(=Cc2ccc([N+](=O)[O-])o2)SC1=S` [Compound 14, 2-{-5-[(5-Nitro-2-furyl)methylene]-4-oxo-2-thioxo-1,3-thiazolidin-3-yl}amino-N-(3-nitrophenyl)-2-thioxoacetamide], the melting point fell in the range of 152 to 153 °C. Moreover, on HIV-1 IN (setting [2]), the IC50 turned out to be 58 µM. Moreover, the IC50 at HIV-1 IN (setting [3]) worked out at 58 µM. Further, the IC50 in series [1] is > 100 µM.
With `O=C(Nc1ccc(O)cc1)C(=S)NN1C(=O)C(=Cc2cc(Cl)cc(Cl)c2O)SC1=S` [Compound 50, 2-{[5-(3,5-Dichloro-2-hydroxybenzylidene)-4-oxo-2-thioxo-1,3-thiazolidin-3-yl]amino}-N-(4-hydroxy-phenyl)-2-thioxoacetamide], the melting point was in the range of 217 to 218 °C. Further, on HIV-1 IN (setting [2]), the 50% inhibitory concentration (IC50) stood at 60 µM. In addition, the IC50 at HIV-1 IN (setting [3]) was found to be 55 µM. In addition, in series [1] (setting [4]), the concentration for half-maximal inhibition (IC50) was > 100 µM.
In turn, `COc1cc(NC(=O)C(=S)NN2C(=O)C(=Cc3cc(I)cc(I)c3O)SC2=S)cc(OC)c1OC` [Compound 39, 2-{[5-(2-Hydroxy-3,5-diiodobenzylidene)-4-oxo-2-thioxo-1,3-thiazolidin-3-yl]amino}-N-(3,4,5-trimethoxyphenyl)-2-thioxoacetamide] displayed a melting point of 235 to 236 °C. Further, the “decrease in potency relative to 53” value on HIV-1 IN (IN inhibition, trimethoxy versus p-hydroxyl in ring A) is reported as 10 fold. Further, the 50% inhibitory concentration (IC50) at HIV-1 IN (setting [2]) is 47 ± 20 µM. In addition, at HIV-1 IN (setting [3]), the IC50 was determined as 31 ± 16 µM. For the same molecule, in series [1] (setting [4]), the 50% inhibitory concentration (IC50) was > 100 µM.
Molecule `O=C(Nc1ccc(O)cc1)C(=S)NN1C(=O)C(=Cc2cc(Br)ccc2O)SC1=S` [Compound 42, 2-{[5-(5-Bromo-2-hydroxybenzylidene)-4-oxo-2-thioxo-1,3-thiazolidin-3-yl]amino}-N-(4-hydroxy-phenyl)-2-thioxoacetamide] gave a melting point of 190 to 191 °C. In addition, the 50% inhibitory concentration (IC50) on HIV-1 IN (setting [2]) was > 100 µM. The concentration for half-maximal inhibition (IC50) on HIV-1 IN (setting [3]) is > 100 µM. For the same molecule, in series [1] (setting [4]), the 50% inhibitory concentration (IC50) was > 100 µM.
In turn, `CCN(CC)c1ccc(C=C2SC(=S)N(NC(=S)C(=O)Nc3ccc(O)cc3)C2=O)c(O)c1` [Compound 47, 2-({5-[4-(Diethylamino)-2-hydroxybenzylidene]-4-oxo-2-thioxo-1,3-thiazolidin-3-yl}amino)-N-(4-hydroxyphenyl)-2-thioxoacetamide] came in with a melting point of 206 to 207 °C. For the same molecule, the IC50 on HIV-1 IN (setting [2]) is > 100 µM. At HIV-1 IN (setting [3]), the IC50 was > 100 µM. Moreover, the half-maximal inhibitory concentration (IC50) in series [1] (setting [4]) is > 100 µM.
